Results as given in ChEMBL document CHEMBL1201862, “PubChem BioAssay data set” (2004).
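Step 1: Grow cells in 96-well plates. Step 2: Expose to compound for 48 hours at 5 concentrations. Step 3: Interpolate endpoints linearly; if unreached, use highest concentration. GI50 is the concentration that inhibits growth by half.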 Activity calls are given as the source filed them. Rule as the data show it: active = GI50 up to about 1.1 µM and inactive = higher.

What was measured:
Experiment in all cases: DTP human tumour cell line panel, 48 h
MDA-MB-231 = tested on: MDA-MB-231
EKVX = tested on: EKVX
SNB-19 = tested on: SNB-19
TK-10 = tested on: TK-10
SNB-75 = tested on: SNB-75
SF-295 = tested on: SF-295
OVCAR-4 = tested on: OVCAR-4
ACHN = tested on: ACHN
MCF7 = tested on: MCF7
SR = tested on: SR
786-0 = tested on: 786-0
CCRF-CEM = tested on: CCRF-CEM
KM12 = tested on: KM12
U-251 = tested on: U-251
OVCAR-3 = tested on: OVCAR-3
COLO 205 = tested on: COLO 205
NCI-H226 = tested on: NCI-H226
A549 = tested on: A549
SN12C = tested on: SN12C
DU-145 = tested on: DU-145
PC-3 = tested on: PC-3
HCT-116 = tested on: HCT-116
SK-MEL-28 = tested on: SK-MEL-28
HCT-15 = tested on: HCT-15
SK-OV-3 = tested on: SK-OV-3
Malme-3M = tested on: Malme-3M
Hs-578T = tested on: Hs-578T
CAKI-1 = tested on: CAKI-1
HT-29 = tested on: HT-29
M14 = tested on: M14
BT-549 = tested on: BT-549
MOLT-4 = tested on: MOLT-4
SF-268 = tested on: SF-268
OVCAR-5 = tested on: OVCAR-5
HL-60 = tested on: HL-60
UO-31 = tested on: UO-31
NCI-H460 = tested on: NCI-H460
IGROV-1 = tested on: IGROV-1
MDA-N = tested on: MDA-N
HOP-62 = tested on: HOP-62
T47D = tested on: T47D
MDA-MB-435 = tested on: MDA-MB-435
NCI/ADR-RES = tested on: NCI/ADR-RES
UACC-257 = tested on: UACC-257
OVCAR-8 = tested on: OVCAR-8
SK-MEL-5 = tested on: SK-MEL-5
NCI-H522 = tested on: NCI-H522
RXF 393 = tested on: RXF 393
NCI-H23 = tested on: NCI-H23
RPMI-8226 = tested on: RPMI-8226
K562 = tested on: K562
UACC-62 = tested on: UACC-62
LOX IMVI = tested on: LOX IMVI
SW-620 = tested on: SW-620
A498 = tested on: A498
HOP-92 = tested on: HOP-92
SK-MEL-2 = tested on: SK-MEL-2
HCC 2998 = tested on: HCC 2998
SF-539 = tested on: SF-539

Structure (SMILES): COc1ccc(C2Oc3c(cccc3OC)C=C2[N+](=O)[O-])cc1OC (stereo unspecified)
- GI50 (MDA-MB-231): 9.91 µM (inactive)
- GI50 (EKVX): 45.2 µM (inactive)
- GI50 (SNB-19): 17.3 µM (inactive)
- GI50 (TK-10): 23.8 µM (inactive)
- GI50 (SNB-75): 7.21 µM (inactive)
- GI50 (SF-295): 20.6 µM (inactive)
- GI50 (OVCAR-4): 18.7 µM (inactive)
- GI50 (ACHN): 10.4 µM (inactive)
- GI50 (MCF7): 4.12 µM (inactive)
- GI50 (SR): 2.59 µM (inactive)
- GI50 (786-0): 3.74 µM (inactive)
- GI50 (CCRF-CEM): 1.58 µM (inactive)
- GI50 (KM12): 9.98 µM (inactive)
- GI50 (U-251): 3.97 µM (inactive)
- GI50 (OVCAR-3): 11.9 µM (inactive)
- GI50 (COLO 205): 13.7 µM (inactive)
- GI50 (NCI-H226): 18.6 µM (inactive)
- GI50 (A549): 14.7 µM (inactive)
- GI50 (SN12C): 5.55 µM (inactive)
- GI50 (DU-145): 11.7 µM (inactive)
- GI50 (PC-3): 4.08 µM (inactive)
- GI50 (HCT-116): 4.55 µM (inactive)
- GI50 (SK-MEL-28): 4.22 µM (inactive)
- GI50 (HCT-15): 3.46 µM
- GI50 (SK-OV-3): 4.9 µM (inactive)
- GI50 (Malme-3M): 7.59 µM (inactive)
- GI50 (Hs-578T): 6.25 µM (inactive)
- GI50 (CAKI-1): 13.8 µM (inactive)
- GI50 (HT-29): 18.5 µM (inactive)
- GI50 (M14): 3.82 µM (inactive)
- GI50 (BT-549): 5.47 µM (inactive)
- GI50 (MOLT-4): 2.85 µM (inactive)
- GI50 (SF-268): 15.9 µM (inactive)
- GI50 (OVCAR-5): 13.8 µM (inactive)
- GI50 (HL-60): 2.62 µM (inactive)
- GI50 (UO-31): 14.7 µM (inactive)
- GI50 (NCI-H460): 21.5 µM (inactive)
- GI50 (IGROV-1): 11.9 µM (inactive)
- GI50 (MDA-N): 5.19 µM (inactive)
- GI50 (HOP-62): 21.2 µM (inactive)
- GI50 (T47D): 12.2 µM (inactive)
- GI50 (MDA-MB-435): 2.16 µM (inactive)
- GI50 (NCI/ADR-RES): 3.87 µM (inactive)
- GI50 (UACC-257): 3.71 µM (inactive)
- GI50 (OVCAR-8): 8.93 µM (inactive)
- GI50 (SK-MEL-5): 4.14 µM (inactive)
- GI50 (NCI-H522): 2.97 µM (inactive)
- GI50 (RXF 393): 2.57 µM (inactive)
- GI50 (NCI-H23): 4.41 µM (inactive)
- GI50 (RPMI-8226): 32.3 µM (inactive)
- GI50 (K562): 2.58 µM (inactive)
- GI50 (UACC-62): 4.16 µM (inactive)
- GI50 (LOX IMVI): 2.49 µM (inactive)

Structure (SMILES): O=C(Nc1ccc(Cl)cc1)[C-](C(=O)c1ccc(Br)cc1)[n+]1cccc(-c2ccc(Cl)cc2)n1
- GI50 (MDA-MB-231): 31.2 µM (inactive)
- GI50 (EKVX): 3.49 µM (inactive)
- GI50 (SW-620): 4.3 µM (inactive)
- GI50 (SNB-19): 8.41 µM (inactive)
- GI50 (TK-10): 5.74 µM (inactive)
- GI50 (SNB-75): 6.49 µM (inactive)
- GI50 (SF-295): 2.6 µM (inactive)
- GI50 (OVCAR-4): 3.65 µM (inactive)
- GI50 (ACHN): 4.84 µM (inactive)
- GI50 (MCF7): 1.41 µM (inactive)
- GI50 (SR): 2.27 µM (inactive)
- GI50 (786-0): 2.56 µM (inactive)
- GI50 (KM12): 3.1 µM (inactive)
- GI50 (U-251): 3.87 µM (inactive)
- GI50 (OVCAR-3): 2.92 µM (inactive)
- GI50 (COLO 205): 4.15 µM (inactive)
- GI50 (A549): 3.72 µM (inactive)
- GI50 (SN12C): 2.88 µM (inactive)
- GI50 (DU-145): 5.45 µM (inactive)
- GI50 (PC-3): 3.95 µM (inactive)
- GI50 (HCT-116): 3.09 µM (inactive)
- GI50 (SK-MEL-28): 8.77 µM (inactive)
- GI50 (HCT-15): 3.93 µM
- GI50 (SK-OV-3): 6.35 µM (inactive)
- GI50 (Malme-3M): 2.86 µM (inactive)
- GI50 (Hs-578T): 4.25 µM (inactive)
- GI50 (A498): 9.71 µM (inactive)
- GI50 (CAKI-1): 2.56 µM (inactive)
- GI50 (M14): 3.68 µM (inactive)
- GI50 (BT-549): 2.54 µM (inactive)
- GI50 (MOLT-4): 5.05 µM (inactive)
- GI50 (SF-268): 4.62 µM (inactive)
- GI50 (OVCAR-5): 4.24 µM (inactive)
- GI50 (UO-31): 5.87 µM (inactive)
- GI50 (NCI-H460): 3.44 µM (inactive)
- GI50 (IGROV-1): 2.77 µM (inactive)
- GI50 (HOP-92): 3.61 µM (inactive)
- GI50 (MDA-N): 4.53 µM (inactive)
- GI50 (HOP-62): 6.28 µM (inactive)
- GI50 (T47D): 1.64 µM (inactive)
- GI50 (MDA-MB-435): 3.07 µM (inactive)
- GI50 (NCI/ADR-RES): 3.53 µM (inactive)
- GI50 (UACC-257): 3.88 µM (inactive)
- GI50 (OVCAR-8): 3.56 µM (inactive)
- GI50 (SK-MEL-5): 3.18 µM (inactive)
- GI50 (NCI-H522): 2.26 µM (inactive)
- GI50 (NCI-H23): 2.37 µM (inactive)
- GI50 (RPMI-8226): 3.81 µM (inactive)
- GI50 (K562): 6.3 µM (inactive)
- GI50 (SK-MEL-2): 3.57 µM (inactive)
- GI50 (UACC-62): 3.85 µM (inactive)
- GI50 (LOX IMVI): 2.97 µM (inactive)
- GI50 (HCC 2998): 6.78 µM (inactive)

Structure (SMILES): O=C(CCc1ccc(O)c(O)c1)c1ccc(O)c(O)c1O
- GI50 (MDA-MB-231): 20.3 µM (inactive)
- GI50 (EKVX): 20 µM (inactive)
- GI50 (SW-620): 27.4 µM (inactive)
- GI50 (SNB-19): 34.4 µM (inactive)
- GI50 (TK-10): 19 µM (inactive)
- GI50 (SNB-75): 19.1 µM (inactive)
- GI50 (SF-295): 18.3 µM (inactive)
- GI50 (OVCAR-4): 19.7 µM (inactive)
- GI50 (ACHN): 14.3 µM (inactive)
- GI50 (MCF7): 19.1 µM (inactive)
- GI50 (SR): 24.9 µM (inactive)
- GI50 (786-0): 35.2 µM (inactive)
- GI50 (CCRF-CEM): 10.2 µM (inactive)
- GI50 (KM12): 17.3 µM (inactive)
- GI50 (U-251): 14.8 µM (inactive)
- GI50 (COLO 205): 17.7 µM (inactive)
- GI50 (NCI-H226): 11.5 µM (inactive)
- GI50 (A549): 34.2 µM (inactive)
- GI50 (SN12C): 15.3 µM (inactive)
- GI50 (DU-145): 19.7 µM (inactive)
- GI50 (PC-3): 34.5 µM (inactive)
- GI50 (HCT-116): 37.3 µM (inactive)
- GI50 (SK-MEL-28): 60.7 µM (inactive)
- GI50 (HCT-15): 14.7 µM
- GI50 (SK-OV-3): 52.2 µM (inactive)
- GI50 (Malme-3M): 28.4 µM (inactive)
- GI50 (Hs-578T): 23.6 µM (inactive)
- GI50 (A498): 17.9 µM (inactive)
- GI50 (CAKI-1): 17.8 µM (inactive)
- GI50 (HT-29): 26.7 µM (inactive)
- GI50 (M14): 16.8 µM (inactive)
- GI50 (BT-549): > 10 µM (inactive)
- GI50 (MOLT-4): 22.3 µM (inactive)
- GI50 (SF-268): 16.6 µM (inactive)
- GI50 (OVCAR-5): 21.2 µM (inactive)
- GI50 (HL-60): 11.5 µM (inactive)
- GI50 (UO-31): 52.4 µM (inactive)
- GI50 (NCI-H460): 13 µM (inactive)
- GI50 (IGROV-1): 25.1 µM (inactive)
- GI50 (HOP-92): 22.3 µM (inactive)
- GI50 (MDA-N): 15.3 µM (inactive)
- GI50 (T47D): 23.7 µM (inactive)
- GI50 (MDA-MB-435): 18.9 µM (inactive)
- GI50 (NCI/ADR-RES): 26.5 µM (inactive)
- GI50 (SF-539): 15.5 µM (inactive)
- GI50 (UACC-257): 31.5 µM (inactive)
- GI50 (OVCAR-8): 22.9 µM (inactive)
- GI50 (SK-MEL-5): 17.3 µM (inactive)
- GI50 (NCI-H522): 11.9 µM (inactive)
- GI50 (NCI-H23): 21.4 µM (inactive)
- GI50 (K562): 13.2 µM (inactive)
- GI50 (SK-MEL-2): 58.7 µM (inactive)
- GI50 (UACC-62): 25.9 µM (inactive)
- GI50 (LOX IMVI): 27.7 µM (inactive)
- GI50 (HCC 2998): 49.8 µM (inactive)
